Reference: ChEMBL document CHEMBL1909046, “DrugMatrix in vitro pharmacology data”

Legend:
[1] = target: D(3) dopamine receptor (Homo sapiens, UniProt P35462); assay: DRUGMATRIX: Dopamine D3 radioligand binding (ligand: [3H] Spiperone); format: cell membranes, CHO, Membrane
[2] = target: Epidermal growth factor receptor (Homo sapiens, UniProt P00533); assay: DRUGMATRIX: Protein Tyrosine Kinase, EGF Receptor enzyme inhibition (substrate: Poly(Glu:Tyr)); format: cell-based, Insect cells; details: Not Active = under 50% inhibition at 10 µM
[3] = target: T1, Caspase-1 (Homo sapiens, UniProt P29466); set-up: species or system Escherichia coli;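 also: Caspase-1 enzyme inhibition assay with a peptide substrate; in other assays of this panel Not Active means under 50% inhibition at 10 µM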
T1 sequence (P29466 whole entry): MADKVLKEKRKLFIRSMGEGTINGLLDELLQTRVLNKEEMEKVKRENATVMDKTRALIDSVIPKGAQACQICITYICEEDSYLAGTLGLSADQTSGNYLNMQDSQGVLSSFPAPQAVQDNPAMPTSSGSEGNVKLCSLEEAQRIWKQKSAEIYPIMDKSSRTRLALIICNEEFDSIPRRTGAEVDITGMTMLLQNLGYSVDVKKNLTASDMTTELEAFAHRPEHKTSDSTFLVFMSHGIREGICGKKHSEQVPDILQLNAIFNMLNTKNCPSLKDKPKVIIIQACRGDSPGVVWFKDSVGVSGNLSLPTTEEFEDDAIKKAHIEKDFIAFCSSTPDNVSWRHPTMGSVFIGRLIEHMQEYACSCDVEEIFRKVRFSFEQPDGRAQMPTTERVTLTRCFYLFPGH

[4] = DRUGMATRIX: GABAA, Muscimol, Central radioligand binding (ligand: [3H] Muscimol); format: cell membranes, Rattus norvegicus, Wistar, Brain, Membrane; details: Not Active = under 50% inhibition at 10 µM
[5] = DRUGMATRIX: Glutamate, AMPA radioligand binding (ligand: [3H] AMPA); format: cell membranes, Rattus norvegicus, Wistar, Cerebral cortex, Membrane; details: Not Active = under 50% inhibition at 10 µM
[6] = target: Protein phosphatase 3 catalytic subunit alpha (Homo sapiens, UniProt Q08209); set-up: species or system Escherichia coli;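 also: inhibition of calcineurin (PP2B) enzyme activity, measured with DiFMUP as the substrate; in other assays of this panel Not Active means under 50% inhibition at 10 µM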
[7] = target: Vasopressin V1a receptor (Homo sapiens, UniProt P37288); format: cell membranes, Membrane; details: hek293; also: in other assays of this panel Not Active means under 50% inhibition at 10 µM
Chain of Vasopressin V1a receptor (P37288 whole entry): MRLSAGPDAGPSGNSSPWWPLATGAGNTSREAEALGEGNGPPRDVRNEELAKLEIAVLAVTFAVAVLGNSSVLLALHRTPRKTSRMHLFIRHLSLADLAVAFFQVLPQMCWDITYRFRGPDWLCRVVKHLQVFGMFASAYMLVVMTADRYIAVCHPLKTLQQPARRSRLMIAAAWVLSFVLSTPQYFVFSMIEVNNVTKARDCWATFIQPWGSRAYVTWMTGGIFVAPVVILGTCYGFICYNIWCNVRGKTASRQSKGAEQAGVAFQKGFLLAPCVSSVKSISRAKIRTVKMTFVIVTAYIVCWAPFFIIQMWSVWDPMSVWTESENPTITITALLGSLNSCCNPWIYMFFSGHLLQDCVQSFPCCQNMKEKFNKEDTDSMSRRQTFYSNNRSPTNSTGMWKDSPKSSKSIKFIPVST

Chain of D(3) dopamine receptor (P35462 whole entry): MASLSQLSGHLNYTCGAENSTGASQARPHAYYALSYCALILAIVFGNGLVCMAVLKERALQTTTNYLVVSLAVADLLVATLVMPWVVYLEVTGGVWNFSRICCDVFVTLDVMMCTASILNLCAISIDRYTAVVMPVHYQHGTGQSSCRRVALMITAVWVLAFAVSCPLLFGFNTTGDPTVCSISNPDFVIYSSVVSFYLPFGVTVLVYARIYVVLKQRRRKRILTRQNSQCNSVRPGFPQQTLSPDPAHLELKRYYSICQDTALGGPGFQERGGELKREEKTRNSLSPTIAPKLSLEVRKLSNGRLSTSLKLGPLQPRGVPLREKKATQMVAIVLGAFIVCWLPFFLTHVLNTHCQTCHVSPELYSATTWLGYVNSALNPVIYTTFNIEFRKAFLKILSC

Compound | IC50 ([1]; cho) | IC50 ([2]; insect cells) | IC50 [3] | IC50 [4] | Ki [4] | IC50 [5] | Ki [5] | IC50 [6] | IC50 [7] | IC50 ([2]; read-out: IC50) | IC50 ([1]; read-out: IC50) | Ki ([1]; read-out: Ki) | Ki ([1]; cho) | IC50 ([2]; insect cells, read-out: IC50) | Ki [3] | Ki [6] | Ki [7] | Ki ([2]; insect cells)
NC1=NC(=O)C(c2ccccc2)O1 (stereo unspecified) [PEMOLINE] | Not Active | Not Active | Not Active | Not Active | Not Active | Not Active | Not Active | Not Active | Not Active |  |  |  |  |  |  |  |  | 
Nc1nc2c(ncn2CCC(CO)CO)c(=O)[nH]1 [PENCICLOVIR] | Not Active | Not Active | Not Active | Not Active | Not Active | Not Active | Not Active | Not Active | Not Active |  |  |  |  |  |  |  |  | 
C=C(C)C1(O)OC(=O)C=C1OC (stereo unspecified) [PENICILLIC ACID] | Not Active | Not Active | Not Active | Not Active | Not Active | Not Active | Not Active | Not Active | Not Active |  |  |  |  |  |  |  |  | 
CC1(C)S[C@@H]2[C@H](NC(=O)Cc3ccccc3)C(=O)N2[C@H]1C(=O)O [PENICILLIN G] | Not Active | Not Active | Not Active | Not Active | Not Active | Not Active | Not Active | Not Active | Not Active |  |  |  |  |  |  |  |  | 
C1CCC(C(CC2CCCCN2)C2CCCCC2)CC1 (stereo unspecified) [PERHEXILINE] | Not Active |  | Not Active | Not Active | Not Active | Not Active | Not Active | Not Active | Not Active | 1490 nM |  |  |  |  |  |  |  | 
CCOc1ccc(NC(C)=O)cc1 [PHENACETIN] | Not Active | Not Active | Not Active | Not Active | Not Active | Not Active | Not Active | Not Active | Not Active |  |  |  |  |  |  |  |  | 
Cc1ccc(N(CC2=NCCN2)c2cccc(O)c2)cc1 [PHENTOLAMINE] | Not Active | Not Active | Not Active | Not Active | Not Active | Not Active | Not Active | Not Active | Not Active |  |  |  |  |  |  |  |  | 
CNNCc1ccc(C(=O)NC(C)C)cc1 [PROCARBAZINE] | Not Active | Not Active | Not Active | Not Active | Not Active | Not Active | Not Active | Not Active | Not Active |  |  |  |  |  |  |  |  | 
CN(C)CCCN1c2ccccc2Sc2ccccc21 [PROMAZINE] |  | Not Active | Not Active | Not Active | Not Active | Not Active | Not Active | Not Active | Not Active |  | 205 nM | 69 nM |  |  |  |  |  | 
CC(O)CO (stereo unspecified) [PROPYLENE GLYCOL] | Not Active | Not Active | Not Active | Not Active | Not Active | Not Active | Not Active | Not Active | Not Active |  |  |  |  |  |  |  |  | 
CADMIUM ACETATE | Not Active |  | Not Active | Not Active | Not Active | Not Active | Not Active | Not Active | Not Active |  |  |  | Not Active | 244 nM | Not Active | Not Active | Not Active | 
LEAD (II) ACETATE | Not Active | Not Active | Not Active | Not Active | Not Active | Not Active | Not Active | Not Active | Not Active |  |  |  | Not Active |  | Not Active | Not Active | Not Active | Not Active
LIPOPOLYSACCHARIDE E. COLI O55:B5 | Not Active |  | Not Active | Not Active | Not Active | Not Active | Not Active | Not Active | Not Active |  |  |  | Not Active | 188 nM | Not Active | Not Active | Not Active | 
